Results on 23 molecules are retold here after US8148391B2 (Cephalon, Inc., priority 2006, dated 2012).

Experiment [1] concerns the target T1, baculovirus-expressed ALK (Homo sapiens, UniProt Q9UM73).
T1 construct: host or cells: baculovirus expression system
The experiment is described as follows: ALK Kinase Assay (ELISA-type, time-resolved fluorescence). It is filed as biochemical. A digest of the protocol:
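Substrate coating: phospholipase C-γ, 10 μg/mL in TBS. Kinase step: 30 ng/ml ALK, 15 min, 37° C. Detection and analysis: Eu-N1 PT66 antibody, with IC50 fitted as a sigmoidal variable-slope dose-response curve.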
For orientation: ELISA stands for enzyme-linked immunosorbent assay.

Experiment [2] concerns the target T2, c-Met (cytoplasmic domain) (Homo sapiens, UniProt P08581).
T2 construct: 10 ng/mL c-Met (cytoplasmic domain, Invitrogen Corporation #PV3143); purchased Invitrogen Corporation PV3143
The experiment is described as follows: c-Met Kinase Assay (same methods as for ALK, with modifications). The format is biochemical. Summed up: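 Wells were coated with 10 μg/mL phospholipase C-γ substrate in TBS, and reactions were started with 10 ng/mL c-Met cytoplasmic domain and run at 37° C for 15 minutes. Phosphorylated product was detected with Eu-N1-labeled PT66 antibody. IC50 values came from sigmoidal variable-slope fits of percent inhibition versus log compound concentration.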

The mark [3] stands for this setting: ALK kinase inhibition, 1 μM ATP, read-out: ALK Activity.
Where [4] appears, read: c-Met kinase inhibition, 1 μM ATP, read-out: cMet Activity.
Where [5] appears, read: 1 μM ATP (Km level), 30 ng/ml ALK, 37° C., 15 minutes, read-out: ALK Activity (ALK kinase inhibition, IC50 class).
Setting [6] is: 1 μM ATP (Km level), 10 ng/mL c-Met, read-out: cMet Activity (c-Met kinase inhibition, IC50 class).
Where [7] appears, read: 1 μM ATP (Km level), read-out: ALK Activity (ALK Kinase Inhibition, IC50).
The mark [8] stands for this setting: 1 μM ATP (Km level), read-out: cMet Activity (c-Met Kinase Inhibition, IC50).
Where [9] appears, read: ALK kinase inhibition, 1 μM ATP (Km level), read-out: ALK Activity.
Setting [10] is: c-Met kinase inhibition, 1 μM ATP (Km level), read-out: cMet Activity.

The structures appear in SMILES notation. Read-outs that look alike come from different tables or passages of the source.

T1 sequence (Q9UM73 19-1620): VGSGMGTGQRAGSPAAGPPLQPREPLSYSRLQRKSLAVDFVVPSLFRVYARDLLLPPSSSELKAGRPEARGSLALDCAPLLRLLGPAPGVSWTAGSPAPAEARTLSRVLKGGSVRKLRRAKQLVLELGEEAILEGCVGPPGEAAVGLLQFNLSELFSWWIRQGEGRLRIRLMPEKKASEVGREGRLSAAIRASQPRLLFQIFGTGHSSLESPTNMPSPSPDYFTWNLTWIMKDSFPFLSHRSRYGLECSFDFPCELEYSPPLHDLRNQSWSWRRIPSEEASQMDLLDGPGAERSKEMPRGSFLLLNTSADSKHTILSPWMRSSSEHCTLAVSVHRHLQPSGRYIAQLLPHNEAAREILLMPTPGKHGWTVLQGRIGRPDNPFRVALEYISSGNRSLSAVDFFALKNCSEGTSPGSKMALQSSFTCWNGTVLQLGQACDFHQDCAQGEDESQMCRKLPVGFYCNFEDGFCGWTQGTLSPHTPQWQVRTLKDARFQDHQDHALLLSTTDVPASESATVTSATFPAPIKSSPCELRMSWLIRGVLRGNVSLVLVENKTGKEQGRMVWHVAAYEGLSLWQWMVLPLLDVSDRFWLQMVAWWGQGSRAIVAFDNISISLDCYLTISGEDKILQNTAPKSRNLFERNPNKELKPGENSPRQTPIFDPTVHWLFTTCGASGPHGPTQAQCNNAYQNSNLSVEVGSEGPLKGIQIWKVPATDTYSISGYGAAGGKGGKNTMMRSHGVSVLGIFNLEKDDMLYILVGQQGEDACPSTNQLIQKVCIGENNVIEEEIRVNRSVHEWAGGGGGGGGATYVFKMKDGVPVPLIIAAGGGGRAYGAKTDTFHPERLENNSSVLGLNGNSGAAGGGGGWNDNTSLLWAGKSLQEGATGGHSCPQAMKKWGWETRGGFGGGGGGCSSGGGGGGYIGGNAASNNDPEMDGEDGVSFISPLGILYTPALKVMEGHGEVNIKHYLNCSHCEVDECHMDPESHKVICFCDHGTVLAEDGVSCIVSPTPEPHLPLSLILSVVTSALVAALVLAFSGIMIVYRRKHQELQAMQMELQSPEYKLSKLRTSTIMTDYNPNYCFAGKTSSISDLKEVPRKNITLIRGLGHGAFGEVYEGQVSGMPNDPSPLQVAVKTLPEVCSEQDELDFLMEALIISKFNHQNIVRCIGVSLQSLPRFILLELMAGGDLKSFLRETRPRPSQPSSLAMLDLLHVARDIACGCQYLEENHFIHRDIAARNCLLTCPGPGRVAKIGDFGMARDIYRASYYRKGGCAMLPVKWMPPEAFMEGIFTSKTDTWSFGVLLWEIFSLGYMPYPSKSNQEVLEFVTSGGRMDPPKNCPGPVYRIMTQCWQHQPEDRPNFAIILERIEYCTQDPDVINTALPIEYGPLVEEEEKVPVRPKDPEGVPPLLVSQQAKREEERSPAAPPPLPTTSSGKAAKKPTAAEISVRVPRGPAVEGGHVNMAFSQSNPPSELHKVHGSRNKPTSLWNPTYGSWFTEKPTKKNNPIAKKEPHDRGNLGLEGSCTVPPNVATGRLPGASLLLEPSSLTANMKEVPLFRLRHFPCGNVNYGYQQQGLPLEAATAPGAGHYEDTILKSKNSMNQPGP
T2 sequence (P08581 956-1390 limits assumed): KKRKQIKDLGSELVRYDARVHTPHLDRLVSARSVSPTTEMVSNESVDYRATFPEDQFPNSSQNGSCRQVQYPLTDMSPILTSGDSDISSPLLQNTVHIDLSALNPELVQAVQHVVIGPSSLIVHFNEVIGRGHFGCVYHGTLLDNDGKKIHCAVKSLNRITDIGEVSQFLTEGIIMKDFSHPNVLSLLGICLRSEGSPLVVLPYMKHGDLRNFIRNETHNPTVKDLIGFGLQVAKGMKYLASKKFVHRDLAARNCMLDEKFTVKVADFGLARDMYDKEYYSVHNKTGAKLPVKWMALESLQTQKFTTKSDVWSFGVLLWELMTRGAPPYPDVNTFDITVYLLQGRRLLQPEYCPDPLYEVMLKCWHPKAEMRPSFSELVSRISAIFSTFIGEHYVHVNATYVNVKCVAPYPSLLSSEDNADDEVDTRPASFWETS

Turning to `CNC(=O)c1scc(C)c1Nc1nc(Nc2ccc3c(c2)CNC(=O)CC3)ncc1Cl` [Example 1795, 3-[5-Chloro-2-(3-oxo-2,3,4,5-tetrahydro-1H-benzo[c]azepin-8-ylamino)-pyrimidin-4-ylamino]-4-methyl-thiophene-2-carboxylic acid methylamide], the IC50 was 1000 to 10000 nM in experiment [1] (setting [3]) and below 100 nM in experiment [2] (setting [4]).

As to `COc1cc2c(cc1Nc1ncc(Cl)c(Nc3ccc(N(C)C)cc3OC)n1)CCN(CC(=O)N(C)C)CC2` [Example 1166, 2-{7-[5-Chloro-4-(4-dimethylamino-2-methoxy-phenylamino)-pyrimidin-2-ylamino]-8-methoxy-1,2,4,5-tetrahydro-benzo[d]azepin-3-yl}-N,N-dimethyl-acetamide], the IC50 in experiment [1] (setting [5]) is below 100 nM; in experiment [2] (setting [6]), above 10000 nM.

`CN1C(=O)CCC(C)(C)c2cc(Nc3ncc(Cl)c(Nc4ccccc4S(=O)(=O)N(C)C)n3)ccc21` [Example 1325, 2-[5-Chloro-2-(1,5,5-trimethyl-2-oxo-2,3,4,5-tetrahydro-1H-benzo[b]azepin-7-ylamino)-pyrimidin-4-ylamino]-N,N-dimethyl-benzenesulfonamide]: the IC50 is below 100 nM in experiment [1] (setting [5]) and 100 to 1000 nM in experiment [2] (setting [6]).

For the molecule `COc1cc(N2CCOCC2)ccc1Nc1nc(Nc2ccc3c(c2OC)CCCC(N2CCOCC2)C3)ncc1Cl` (stereo not shown) [Example 952, 5-Chloro-N(4)-(2-methoxy-4-morpholin-4-yl-phenyl)-N(2)-(1-methoxy-6-morpholin-4-yl-6,7,8,9-tetrahydro-5H-benzocyclohepten-2-yl)-pyrimidine-2,4-diamine], the IC50 is below 100 nM in experiment [1] (setting [7]) and above 10000 nM in experiment [2] (setting [8]).

Take `CCNC(=O)c1cccc(F)c1Nc1nc(Nc2ccc3c(c2)N(CC)C(=O)CCC3(C)C)ncc1Cl` [Example 1579, 2-[5-Chloro-2-(1-ethyl-5,5-dimethyl-2-oxo-2,3,4,5-tetrahydro-1H-benzo[b]azepin-8-ylamino)-pyrimidin-4-ylamino]-N-ethyl-3-fluoro-benzamide]: the IC50 in experiment [1] (setting [3]) and in experiment [2] (setting [4]) was below 100 nM in each case.

As for `CNC(=O)c1ccccc1Nc1nc(Nc2ccc3c(c2)CCN(C(=O)C(F)(F)F)CC3)ncc1Cl` [Example 44, 2-{5-Chloro-2-[3-(2,2,2-trifluoro-acetyl)-2,3,4,5-tetrahydro-1H-benzo[d]azepin-7-ylamino]-pyrimidin-4-ylamino}-N-methyl-benzamide], the IC50 in experiment [1] (setting [9]) and in experiment [2] (setting [10]) was below 100 nM throughout.

Consider `COc1cc2c(cc1Nc1ncc(Cl)c(N[C@@H]3CCCC[C@H]3NS(C)(=O)=O)n1)CCN(C(CF)CF)CC2` [Example 1392, ((1R,2R)-2-{5-Chloro-2-[3-(2-fluoro-1-fluoromethyl-ethyl)-8-methoxy-2,3,4,5-tetrahydro-1H-benzo[d]azepin-7-ylamino]-pyrimidin-4-ylamino}-cyclohexyl)-methanesulfonamide], for which the IC50 in experiment [1] (setting [5]) is below 100 nM; in experiment [2] (setting [6]), above 10000 nM.

Turning to `CNS(=O)(=O)c1ccccc1Nc1nc(Nc2cccc3c2C(=O)NCCN3)ncc1Cl` [Example 171, 2-[5-Chloro-2-(5-oxo-2,3,4,5-tetrahydro-1H-benzo[e][1,4]diazepin-6-ylamino)pyrimidin-4-ylamino]-N-methyl-benzenesulfonamide], the IC50 in experiment [1] (setting [9]) and in experiment [2] (setting [10]) was 1000 to 10000 nM throughout.

As to `CCN1CCN(CC)c2cc(Nc3ncc(Cl)c(Nc4ccccc4NS(C)(=O)=O)n3)ccc2C1=O` [Example 423, N-{2-[5-Chloro-2-(1,4-diethyl-5-oxo-2,3,4,5-tetrahydro-1H-benzo[e][1,4]diazepin-8-ylamino)-pyrimidin-4-ylamino]-phenyl}-methanesulfonamide], the figures for the IC50 in experiment [1] (setting [9]) and in experiment [2] (setting [10]) were below 100 nM and 100 to 1000 nM, respectively.

For the molecule `CNC(=O)c1ccccc1Nc1nc(Nc2ccc3c(c2)OCCNC3=O)ncc1Cl` [Example 512, 2-[5-Chloro-2-(5-oxo-2,3,4,5-tetrahydro-benzo[f][1,4]oxazepin-8-ylamino)-pyrimidin-4-ylamino]-N-methyl-benzamide], the IC50 in experiment [1] (setting [7]) and in experiment [2] (setting [8]) was below 100 nM each time.

As for `CNC(=O)c1c(Cl)sc(Cl)c1Nc1nc(Nc2ccc3c(c2)CN(C)C(=O)CC3)ncc1Cl` [Example 1807, 2,5-Dichloro-4-[5-chloro-2-(2-methyl-3-oxo-2,3,4,5-tetrahydro-1H-benzo[c]azepin-8-ylamino)-pyrimidin-4-ylamino]-thiophene-3-carboxylic acid methylamide], the IC50 in experiment [1] (setting [3]) and in experiment [2] (setting [4]) was below 100 nM throughout.

Consider `C#CCNC(=O)c1sccc1Nc1nc(Nc2ccc3c(c2)NC(=O)CCC3(C)C)ncc1Cl` [Example 1623, 3-[5-Chloro-2-(5,5-dimethyl-2-oxo-2,3,4,5-tetrahydro-1H-benzo[b]azepin-8-ylamino)-pyrimidin-4-ylamino]-thiophene-2-carboxylic acid prop-2-ynylamide], for which the results for the IC50 in experiment [1] (setting [3]) and in experiment [2] (setting [4]) were 100 to 1000 nM and above 10000 nM, respectively.

Take `COCCCNC(=O)c1ccccc1Nc1nc(Nc2ccc3c(c2)CCN(CCOC)CC3)ncc1Cl` [Example 1399, {5-Chloro-2-[3-(2-methoxy-ethyl)-2,3,4,5-tetrahydro-1H-benzo[d]azepin-7-ylamino]-pyrimidin-4-ylamino}-N-(3-methoxy-propyl)-benzamide]: the IC50 in experiment [1] (setting [5]) was below 100 nM; in experiment [2] (setting [6]), 1000 to 10000 nM.

Turning to `COc1c(Nc2ncc(Cl)c(N[C@@H]3CCCC[C@H]3NS(C)(=O)=O)n2)ccc2c1CCCC(=O)N2C` [Example 118, N-{(1R,2R)-2-[5-Chloro-2-(6-methoxy-1-methyl-2-oxo-2,3,4,5-tetrahydro-1H-benzo[b]azepin-7-ylamino)-pyrimidin-4-ylamino]-cyclohexyl}-methanesulfonamide], the IC50 in experiment [1] (setting [9]) was below 100 nM; in experiment [2] (setting [10]), above 10000 nM.

Regarding `CNC(=O)c1cccc(F)c1Nc1nc(Nc2ccc3c(c2)NC(=O)C(N2CCOCC2)CC3(C)C)ncc1Cl` (stereo not shown) [Example 1288, 2-[5-Chloro-2-(5,5-dimethyl-3-morpholin-4-yl-2-oxo-2,3,4,5-tetrahydro-1H-1-benzazepin-8-ylamino)-pyrimidin-4-ylamino]-3-fluoro-N-methyl-benzamide], the IC50 in experiment [1] (setting [5]) was 100 to 1000 nM; in experiment [2] (setting [6]), below 100 nM.

For `COCCN1CCSc2ccc(Nc3ncc(Cl)c(N[C@@H]4CCCC[C@H]4NS(C)(=O)=O)n3)cc2C1` [Example 521, N-((1R,2R)-2-{5-Chloro-2-[8-(2-methoxy-ethyl)-6,7,8,9-tetrahydro-5-thia-8-aza-benzocyclohepten-2-ylamino]pyrimidin-4-ylamino}-cyclohexyl)-methanesulfonamide], the IC50 is below 100 nM in experiment [1] (setting [7]) and 1000 to 10000 nM in experiment [2] (setting [8]).

Take `CNC(=O)c1ccccc1Nc1nc(Nc2ccc3c(c2)C2CCC3CNC2)ncc1Cl` (stereo not shown) [Example 277, 2-[2-(10-Aza-tricyclo[6.3.2.0*2,7*]trideca-2,4,6-trien-4-ylamino)-5-chloro-pyrimidin-4-ylamino]-N-methyl-benzamide]: the IC50 in experiment [1] (setting [9]) and in experiment [2] (setting [10]) was below 100 nM throughout.

As for `CNC(=O)c1cc(C)ccc1Nc1nc(Nc2ccc3c(c2)CCN(CCOC)CC3)ncc1Cl` [Example 308, 2-{5-Chloro-2-[3-(2-methoxy-ethyl)-2,3,4,5-tetrahydro-1H-benzo[d]azepin-7-ylamino]-pyrimidin-4-ylamino}-5,N-dimethyl-benzamide], the IC50 in experiment [1] (setting [9]) and in experiment [2] (setting [10]) was below 100 nM throughout.

On to `CNC(=O)c1scc(C)c1Nc1nc(Nc2ccc3c(c2)-n2ccnc2CCC3)ncc1Cl` [Example 1838, 3-[5-Chloro-2-(5,6-dihydro-4H-3,10b-diaza-benzo[e]azulen-9-ylamino)-pyrimidin-4-ylamino]-4-methyl-thiophene-2-carboxylic acid methylamide], for which the IC50 in experiment [1] (setting [3]) was 100 to 1000 nM; in experiment [2] (setting [4]) it was below 100 nM.

For the molecule `CCN1C(=O)CCCc2c1ccc(Nc1ncc(Cl)c(Nc3ccc(OC)cc3C(=O)NC)n1)c2OC` [Example 607, 2-[5-Chloro-2-(1-ethyl-6-methoxy-2-oxo-2,3,4,5-tetrahydro-1H-benzo[b]azepin-7-ylamino)-pyrimidin-4-ylamino]-5-methoxy-N-methyl-benzamide], the IC50 in experiment [1] (setting [7]) was below 100 nM; in experiment [2] (setting [8]) it was 1000 to 10000 nM.

Consider `CNC(=O)c1ccccc1Nc1nc(Nc2ccc3c(c2)CCOCC3)ncc1Cl` [Example 51, 2-[5-Chloro-2-(5,6,8,9-tetrahydro-7-oxa-benzocyclohepten-2-ylamino)-pyrimidin-4-ylamino]-N-methyl-benzamide], for which the IC50 in experiment [1] (setting [9]) and in experiment [2] (setting [10]) was below 100 nM in each case.

With `COc1c(Nc2ncc(Cl)c(N[C@@H]3CCCC[C@H]3NS(C)(=O)=O)n2)ccc2c1CCC(NCCO)CC2` (single isomer, unassigned) [Example 698], the IC50 was below 100 nM in experiment [1] (setting [7]) and above 10000 nM in experiment [2] (setting [8]).

As for `CNC(=O)c1cccc(F)c1Nc1nc(Nc2ccc3c(c2)N(CCN(C)C)CCCC3(C)C)ncc1Cl` [Example 1638, 2-{5-Chloro-2-[1-(2-dimethylamino-ethyl)-5,5-dimethyl-2,3,4,5-tetrahydro-1H-benzo[b]azepin-8-ylamino]-pyrimidin-4-ylamino}-3-fluoro-N-methyl-benzamide], the IC50 in experiment [1] (setting [3]) and in experiment [2] (setting [4]) was below 100 nM throughout.
